For orientation: DC50 means the concentration at which degradation of the target reaches its halfway point. Higher therefore signals a less potent degrader. By Dmax is commonly meant the largest share of the target that was removed.

Bounds are passed on as bounds.

This assay deals with T1, Cbl-B (Homo sapiens, UniProt Q13191).
T1 construct: MSD-Based Assay for Degradation of Cbl-B in THP-1 Cells; endogenous in cells; host or cells: THP-1 (title) / Jurkat (protocol text)
Put plainly: MSD-based assay for degradation of Cbl-B in THP-1 cells. As to conditions: for DC50: Cbl-B degradation, Jurkat cells seeded (heading: THP-1 cells), 24 hours incubation, MSD readout; for Dmax: THP-1. It counts as cell-based. A digest of the protocol: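 THP-1 cells were treated with compound for 24 h at 37 °C. Cbl-B in lysates was quantified by MSD sandwich immunoassay, with anti-Cbl-B capture antibody at 1 ug/mL and SULFO-TAG anti-rabbit detection. Maximal degradation (Dmax) was binned as A >70%, B 50–70%, C 30–50%, D <30%.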

T1 sequence (Q13191 whole entry): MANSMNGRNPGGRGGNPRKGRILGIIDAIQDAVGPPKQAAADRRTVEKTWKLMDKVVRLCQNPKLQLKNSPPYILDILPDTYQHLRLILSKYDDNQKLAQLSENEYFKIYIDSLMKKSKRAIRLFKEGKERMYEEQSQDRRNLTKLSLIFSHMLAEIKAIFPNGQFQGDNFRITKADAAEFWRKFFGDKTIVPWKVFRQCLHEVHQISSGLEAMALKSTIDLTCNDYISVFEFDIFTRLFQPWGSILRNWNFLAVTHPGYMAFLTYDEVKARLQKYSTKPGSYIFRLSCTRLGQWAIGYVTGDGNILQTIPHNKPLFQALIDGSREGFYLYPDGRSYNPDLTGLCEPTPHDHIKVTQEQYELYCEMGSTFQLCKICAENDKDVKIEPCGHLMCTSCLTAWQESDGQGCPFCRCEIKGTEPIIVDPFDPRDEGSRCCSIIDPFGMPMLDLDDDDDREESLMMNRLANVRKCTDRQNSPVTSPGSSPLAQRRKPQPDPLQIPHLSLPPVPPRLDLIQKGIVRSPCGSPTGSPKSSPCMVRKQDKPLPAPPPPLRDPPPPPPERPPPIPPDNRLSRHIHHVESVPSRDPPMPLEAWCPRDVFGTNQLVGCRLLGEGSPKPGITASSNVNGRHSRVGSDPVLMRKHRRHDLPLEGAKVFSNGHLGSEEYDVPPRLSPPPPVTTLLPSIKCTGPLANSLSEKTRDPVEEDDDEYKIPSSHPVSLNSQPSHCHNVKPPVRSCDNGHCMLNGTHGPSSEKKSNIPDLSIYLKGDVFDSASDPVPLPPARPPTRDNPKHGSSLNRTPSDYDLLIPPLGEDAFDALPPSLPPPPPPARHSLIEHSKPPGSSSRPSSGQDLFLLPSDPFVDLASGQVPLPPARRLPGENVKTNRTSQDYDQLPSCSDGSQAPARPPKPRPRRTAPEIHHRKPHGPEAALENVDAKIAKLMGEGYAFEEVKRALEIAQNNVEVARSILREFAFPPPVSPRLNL

The compound `Cn1cnnc1CC1(c2cccc(-n3cc4c(C(F)(F)F)cc(CN5CCC(C6CCN(C(=O)c7ccc(N8CCN(c9ccc%10c(c9)CN([C@@H]9CCC(=O)NC9=O)C%10=O)CC8)cc7)CC6)CC5)cn4c3=O)c2)COC1` [Compound 261] yielded a DC50 below 30 nM and a Dmax above 70%.

Consider `Cn1cnnc1CC1(c2cccc(-n3cc4c(C(F)(F)F)cc(CN5CCC(C6CCN(C(=O)c7ccc(N8CCN(c9ccc%10c(c9)CN([C@H]9CCC(=O)NC9=O)C%10=O)CC8)cc7)CC6)CC5)cn4c3=O)c2)COC1` [Compound 262], for which the DC50 was below 30 nM and the Dmax is above 70%.

Values taken from US20250340552A1, “COMPOUNDS, COMPOSITIONS AND METHODS OF TREATING DISORDERS” (HOTSPOT THERAPEUTICS, INC., priority 2022, published 2025).
